Among the data in a melting point compilation (Tetko et al.; mined from patent text by program, amines drawn as free bases though some values may be those of a salt) are melting point values, retold here.

`CCOP(=O)(OCC)c1sc2ccccc2c1P(=O)(OCC)OCC`: the melting point was 67 °C.
In turn, `CCOC(=O)C(C)(C)Oc1ccc(CCc2cc(-c3ccc(C(F)(F)F)cc3)oc2C)cc1` displayed a melting point of 87 to 88 °C.
With `O=c1c2cccnc2c(-c2cccc(Cl)c2)cn1CC1CCCC1` the figure was 122 to 124 °C; with `O=[N+]([O-])c1ccc(F)cc1CO`, 82 to 86 °C; with `Oc1c(Br)c(Br)c(Cl)c(Br)c1Br`, 210 to 212 °C.
With `O=C1N(Cc2cnc(Br)s2)c2ccccc2C12COc1cc3c(cc12)OCO3` (stereo not given) the figure was 215 to 217 °C.
With `Nc1cc(F)c(N2CCNCC2)cc1Cl` the figure was 110 °C.
For the compound `Cc1c([N+](=O)[O-])ccc2c1ccn2C`, the melting point lay within 120 to 123 °C.
As for `COC(=O)c1ccc(OC)c2oc(/C=C\C(=O)O)cc12`, the figure is 175 to 178 °C; as for `CC(Cc1cc2ccccc2[nH]1)(NC(=O)OC1C2CC3CC(C2)CC1C3)C(=O)NCC(NC(=O)CCC(=O)OCc1ccccc1)c1ccccc1` (stereo not given), 109 to 113 °C.
As for `C=C(C)c1nnc(-c2cc3c([nH]c2=O)CCN(Cc2ccccc2)C3)o1`, the figure is 221 to 223 °C; as for `Cn1cc(-c2cccc(N3Cc4cc(C(C)(C)C)ccc4C3=O)c2CO)cc(Nc2cc(C3CC3)n[nH]2)c1=O`, 178 to 180 °C.
As for `O=C(O)CN1C(=O)C(=Cc2c3ccccc3cc3ccccc23)SC1=S`, the figure is 277 to 279 °C; as for `CN(N=Cc1ccccc1)C(=NC(=O)CN1C(=O)c2ccccc2C1=O)NCCCOc1cccc(CN2CCCCC2)c1`, 84.5 °C; as for `C=CCCCCCCCCNC(=O)N(C)O`, 58 to 59 °C.
For `CCCc1c(OCCCCCC(=O)c2c(C)c(C)c(O)c(O)c2C)ccc(C(=O)O)c1O`, the melting point is 169 to 170 °C.
The compound `O=C1CCCc2c1c1cccc(F)c1n2Cc1ccc(F)cc1` yielded a melting point of 177 to 178 °C.
With `O=S(=O)(CC(F)(F)F)c1nc2cc(F)ccc2[nH]1` the figure was 160 to 162 °C; with `CC1=C(C(C)O)C(C)(C)CCC1=NO` (stereo not given), 131 to 135 °C.
`COC(=O)C(C(=O)OC)c1ccccc1C(=O)O`: the melting point lay in the range of 119 to 120 °C.
As for `Cc1cc(OS(=O)(=O)C(F)(F)F)cc(=O)n1C`, the figure is 65 to 67 °C.
With `CCCOc1nc(C(F)(F)F)cc(=O)n1-c1cc(O)c(Cl)cc1F` the figure was 122 to 123 °C.
As for `CCOC(=O)c1c(C(F)(F)F)nc(C(F)(F)Cl)c(C(=O)O)c1OCC`, the figure is 81 to 83 °C; as for `Cc1cnc2sc(Sc3ccccc3)nn2c1=O`, 141 to 143 °C; as for `CCn1c(=O)oc2cc(N)ccc21`, 72 to 74 °C.
Regarding `COC(=O)C1=C(O)c2sc3ccccc3c2S(=O)(=O)N1Cc1ccc(OC)cc1`, the melting point is 163 to 164 °C.
As for `CCc1cn(C)cc(-c2ccc(Cl)c(C(F)(F)F)c2)c1=O`, the figure is 121 to 123 °C; as for `CN(C)C1(Cc2ccccc2)CC=C(c2c[nH]c3ncccc23)CC1` (stereo not given), 222 to 225 °C; as for `N#CN1CCC(C2(O)c3ccccc3CCc3ccc(F)cc32)CC1` (stereo not given), 250 °C.
With `CSc1c(N)cnc2ccccc12` the figure was 96 to 98 °C.
Compound `Cn1cc(CCN2C(=O)c3ccccc3C2=O)c2cc(CNC=O)ccc21` displayed a melting point of 189 to 191 °C.
As for `COc1cc(OC)nc(Oc2cccnc2C(=O)O)n1`, the figure is 120 to 121 °C; as for `O=CN(O)C(COCc1ccccc1)CS(=O)(=O)N1CCN(c2cc(Cl)ncn2)CC1` (stereo not given), 118 to 120 °C; as for `CC1C2=CCC3C(CCC4(C)C(O)CCC34)C2(C)CCC1O` (stereo not given), 210 to 214 °C.
In the case of `Cc1cc2c(cc1C)SC(C(F)(F)F)C(C(=O)O)=C2` (stereo not given), the melting point lay within 235 to 237 °C.
With `CC(=O)Nc1c(C#N)c(Cl)c(C#N)n1C` the figure was 180 to 182 °C; with `CN1CCCCC1=NC(=O)Nc1ccccc1`, 145 to 158 °C.
With `O=[N+]([O-])c1cnc2cccnc2c1NCCOc1ccccc1` the figure was 107 to 108 °C.
As for `Cc1ccccc1-c1noc2c(Cl)c(OCC(=O)O)ccc12`, the figure is 179 to 181 °C.
As to `COc1cc(C(=O)N(C(C)C)C2CCCCC2)ccc1Cn1c(CN(C)C)nc2ncccc21`, the melting point was in the range of 141 to 142 °C.
As for `O=c1c(CCCO)c(O)c2cccnc2n1-c1ccccc1`, the figure is 218 to 220 °C.
As for `O=C(NC(Cc1ccc(OCc2ccc(C(F)(F)F)cc2)cc1)C(=O)O)c1cn2ccc(-c3ccc(Cl)cc3)cc2n1` (stereo not given), the figure is 263 °C; as for `CC(=O)OCc1cn(C)c2ccccc2c1=O`, 142 to 146 °C.
As for `Cc1cccc(-c2[nH]c(C(C)C)nc2-c2cccc(-c3ccc(C(F)(F)F)cc3)c2)n1`, the figure is 91 to 93 °C; as for `CCCC1CCC(/C(F)=C(\F)c2ccc(OCC)c(F)c2F)CC1` (stereo not given), 60 °C.
Consider `Cn1c(=O)c2[nH]c(C=Cc3cccc(C(F)(F)F)c3)nc2n(C)c1=O`, for which the melting point is more than 300 °C.
With `COc1cc([N+](=O)[O-])c(NCCCO)cc1O` the figure was 149 °C.
With `COC(=O)C=Cc1ccc(OCCN(C)c2ccccn2)c(F)c1` the figure was 110 to 111 °C; with `COc1ccc2c(C=O)c(OCc3ccccc3)ccc2c1C(F)(F)F`, 143 to 145 °C.
`CCON=C(CC)C1=C(O)CC(c2ccc(Sc3ncc(C(F)(F)F)cc3F)cc2)CC1=O` (stereo not given) showed a melting point of 91 to 92 °C.
As for `COc1ccc(C2CCCN2S(=O)(=O)c2ccc(Cl)cc2)cc1` (racemic), the figure is 133 °C; as for `O=[N+]([O-])c1ccc(Oc2ccc(C(F)(F)F)cn2)cc1NCP(=O)(O)O`, 94 °C; as for `CC(CCNC(=O)C(C#N)=Cc1ccc(O)c(O)c1)NC(=O)C(C#N)=Cc1ccc(O)c(O)c1` (stereo not given), 281 °C.
The compound `CN(C)CCNC(=O)c1ccc(-c2ccccc2CSCCOc2ccccc2)cc1` returned a melting point of 93 to 96 °C.
As for `CCOC(=O)c1c(CCc2ccc(OC)cc2)nc2c(c1-c1ccc(C(=O)NCc3ccco3)cc1)C(=O)N1CCC[C@H]21`, the figure is 136 °C; as for `CS(=O)(=O)On1nnc2c(Cl)cccc21`, 71 to 74 °C.
With `CCCc1c(OCCCOc2ccc3c(c2CCC)OC(CCC#N)CC3)ccc(C(C)=O)c1O` (stereo not given), the melting point lay in the range of 89 to 89.5 °C.
As for `Clc1ccc(-c2cnn3cnnc3n2)cc1`, the figure is more than 300 °C; as for `CNC(=O)c1cccc(NC(=O)Cc2cccc(O)c2)c1`, 163 °C.
As for `CC(C)Cn1nc(-c2ccccc2)cc(C(=O)O)c1=O`, the figure is 120 to 121 °C; as for `CC(=O)c1c(-c2ccccc2)sc(-c2ccncc2)c1C`, 111 to 112 °C.
In turn, `O=C(CF)CS(=O)(=O)C(c1ccc(Cl)cc1)c1ccc(Cl)cc1` had a melting point of 55 to 58 °C.
As for `Cc1c(C)c(N2CCN(c3ccc(C(F)(F)F)cc3)CC2)c(C)c2c1OC(C)(C)C2N1CCCC1` (stereo not given), the figure is 140 to 141 °C; as for `COC(=O)c1nc(N(C)C)ccc1Oc1nc(OC)cc(OC)n1`, 125 to 127 °C.
As for `O=C(O)CS(=O)(=O)C12CC3CC(CC(C3)C1)C2`, the figure is 158 to 162 °C.
With `CNC(=O)OC1Oc2ccc(OS(C)(=O)=O)cc2C1(C)C` (stereo not given) the figure was 126 to 127 °C; with `C=CCN1C(=O)c2cccc3c(N(C)CCO)ccc(c23)C1=O`, 90 to 91 °C; with `CN1C(=O)COc2c(C(=O)NC3CN4CCC3CC4)cc(O)cc21` (stereo not given), 250 to 251 °C.
On to `CC(C)(C)c1cc(CCC(=O)NCc2cccc(NC(=N)c3cccs3)c2)cc(C(C)(C)C)c1O`, for which the melting point lay in the range of 163 to 164 °C.
With `COC1OCC2C(=O)C3CCCCC3CC12` (stereo not given) the figure was 78 to 79 °C; with `Cn1cc(C(=O)NCc2ccc(Cl)cc2)c(=O)c2cc(/C=C/CO)ccc21`, 103 to 106 °C; with `CCCCc1nc2ccccc2n1CC(=O)O`, 70 to 71 °C.
Compound `CN(N)C(=O)NC1c2ccccc2Oc2ccccc21` yielded a melting point of 173 to 176 °C.
With `Cc1cc(-c2ccccc2)nc(-c2cccc([N+](=O)[O-])c2)c1C(=O)NCCN1CCOCC1` the figure was 147 to 148 °C; with `C=CCc1c(C(F)(F)F)[nH]n(-c2ccc(Br)c(Cl)c2)c1=O`, 117 °C; with `NCc1cccc(Nc2n[nH]c3ncnc(Nc4cccc(Cl)c4)c23)c1`, 212 to 214 °C.
In turn, `C=CCOC(=O)CCC(C)(c1ccc(O)cc1)c1ccc(O)cc1` showed a melting point of 83 to 85 °C.
In turn, `CCN(CC)C(=O)C=Cc1ccc(C2=C(c3ccc(O)cc3)CCc3cc(O)ccc32)cc1` yielded a melting point of 222 °C.
As for `COc1cc(C(=O)CBr)ccc1OCC(F)(F)F`, the figure is 120 °C; as for `NCCCCCNc1cccc2c1C(=O)c1c(NCCCCCN)cccc1C2=O`, 115 to 116 °C; as for `Nc1nc2cccnc2c2c1ncn2CC1(O)CCOCC1`, 225 to 226 °C.
As for `O=C(O)c1ccc2nc3n(c(=O)c2c1)CCC3=Cc1ccccc1`, the figure is 285 to 287 °C; as for `O=C(NN=Cc1ccnc2ccccc12)c1ccc(C(F)(F)F)cc1`, 240 °C; as for `Cc1ncc(CN2CC=C(c3ccccc3)CC2)c(N)n1`, 165 to 166 °C.
`COc1ccc(NC=O)c(COC=O)c1`: the melting point came out at 117 °C.
As for `CC1CN(c2c(Cl)nc3ccc(F)cc3c2C(N)=O)CC(C)N1` (stereo not given), the figure is 169 to 170 °C.
As for `O=c1c2ccc(Cl)cc2[nH]c2c(O)nn(CCN3CCN(c4ccccc4)CC3)c(=O)c12`, the figure is 361 to 364 °C; as for `CCn1c(C)nc2cc(C(F)(F)F)c(OC)c([N+](=O)[O-])c21`, 84 to 85.5 °C; as for `CCn1c(=O)n(O)c(=O)c2cc(F)c(N3CCNCC3)cc21`, 206 to 208 °C.
As for `CCCn1c(N)c(N=O)c(=O)n(CC2CCCCC2)c1=O`, the figure is 225 to 226 °C.

What is called melting point is the temperature of the solid-liquid transition.
